Data taken from ChEMBL document CHEMBL5321200, “Discovery of the GSH responsive "Y-PROTACs" targeting ALK and CDK4/6 as a potential treatment for cancer” (Eur J Med Chem, 2023).
Calls of active or inactive are those of the source. No cut-off for these calls is given here.

Assays:
[1] = target: Protein cereblon/Cyclin-dependent kinase 6 (Homo sapiens) (UniProt Q00534+Q96SW2); assay: PROTAC activity at CRBN/CDK6 in human NCI-H3122 cells assessed as reduction in CDK6 protein level at 1 to 10 uM incubated for 24 hrs by Western blot analysis; type: cell-based; details: dose 1-10 µM
NCI-H2228 [2] = assay: Antiproliferative activity against human NCI-H2228 cells assessed as inhibition of cell growth pretreated with GSH followed by compound addition and incubated for 3 to 5 days by MTT assay; type: functional, cell-based
NCI-H3122 [3] = assay: Antiproliferative activity against human NCI-H3122 cells assessed as inhibition of cell growth incubated for 3 to 5 days by MTT assay; type: functional, cell-based
NCI-H1299 [4] = assay: Antiproliferative activity against human NCI-H1299 cells assessed as inhibition of cell growth incubated for 3 to 5 days by MTT assay; type: functional, cell-based
NCI-H1299 [5] = assay: Antiproliferative activity against human NCI-H1299 cells assessed as inhibition of cell growth pretreated with GSH followed by compound addition and incubated for 3 to 5 days by MTT assay; type: functional, cell-based
NCI-H3122 [6] = assay: Antiproliferative activity against human NCI-H3122 cells assessed as inhibition of cell growth pretreated with GSH followed by compound addition and incubated for 3 to 5 days by MTT assay; type: functional, cell-based
NCI-H2228 [7] = assay: Antiproliferative activity against human NCI-H2228 cells assessed as inhibition of cell growth incubated for 3 to 5 days by MTT assay; type: functional, cell-based
[8] = target: Cyclin-dependent kinase 4 (Homo sapiens) (UniProt P11802); assay: Inhibition of CDK4 (unknown origin) at 0.05 uM by LANCE Ultra TR-FRET assay relative to control
[9] = target: Cyclin-dependent kinase 6 (Homo sapiens) (UniProt Q00534); assay: Inhibition of CDK6 (unknown origin) at 0.05 uM by LANCE Ultra TR-FRET assay relative to control
[10] = target: Cyclin-dependent kinase 6 (Homo sapiens) (UniProt Q00534); assay: Inhibition of CDK6 (unknown origin) at 1 uM by LANCE Ultra TR-FRET assay relative to control
[11] = target: Cyclin-dependent kinase 4 (Homo sapiens) (UniProt P11802); assay: Inhibition of CDK4 (unknown origin) at 1 uM by LANCE Ultra TR-FRET assay relative to control
NCI-H3122 [12] = assay: Antiproliferative activity against human NCI-H3122 cells assessed as inhibition of cell growth incubated for 5 days by MTT assay; type: functional, cell-based; details: NCI-H3122, 120 h

Sequence of Protein cereblon/Cyclin-dependent kinase 6 (Homo sapiens) (Q00534 whole entry, looked up): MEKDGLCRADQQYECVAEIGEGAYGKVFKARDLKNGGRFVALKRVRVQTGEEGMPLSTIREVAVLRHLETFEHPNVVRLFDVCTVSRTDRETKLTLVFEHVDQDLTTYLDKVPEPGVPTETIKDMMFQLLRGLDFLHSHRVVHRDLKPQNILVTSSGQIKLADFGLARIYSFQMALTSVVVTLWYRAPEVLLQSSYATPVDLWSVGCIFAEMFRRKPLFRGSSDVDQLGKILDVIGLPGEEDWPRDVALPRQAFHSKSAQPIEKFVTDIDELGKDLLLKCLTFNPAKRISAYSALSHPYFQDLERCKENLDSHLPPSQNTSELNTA
Sequence of Protein cereblon/Cyclin-dependent kinase 6 (Homo sapiens) (Q96SW2 whole entry, looked up): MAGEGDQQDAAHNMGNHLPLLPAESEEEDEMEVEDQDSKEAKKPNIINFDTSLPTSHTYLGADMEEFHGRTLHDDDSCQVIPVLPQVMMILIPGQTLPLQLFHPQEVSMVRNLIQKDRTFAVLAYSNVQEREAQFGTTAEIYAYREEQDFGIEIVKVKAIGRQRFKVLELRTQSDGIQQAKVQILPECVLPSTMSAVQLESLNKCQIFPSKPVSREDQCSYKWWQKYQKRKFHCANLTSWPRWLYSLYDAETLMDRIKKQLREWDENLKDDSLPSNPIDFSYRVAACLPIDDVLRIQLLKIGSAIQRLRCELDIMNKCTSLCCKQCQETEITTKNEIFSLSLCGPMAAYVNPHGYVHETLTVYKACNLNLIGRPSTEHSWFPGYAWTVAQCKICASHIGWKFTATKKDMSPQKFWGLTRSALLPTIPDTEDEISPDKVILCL
Sequence of Cyclin-dependent kinase 4 (Homo sapiens) (P11802 whole entry): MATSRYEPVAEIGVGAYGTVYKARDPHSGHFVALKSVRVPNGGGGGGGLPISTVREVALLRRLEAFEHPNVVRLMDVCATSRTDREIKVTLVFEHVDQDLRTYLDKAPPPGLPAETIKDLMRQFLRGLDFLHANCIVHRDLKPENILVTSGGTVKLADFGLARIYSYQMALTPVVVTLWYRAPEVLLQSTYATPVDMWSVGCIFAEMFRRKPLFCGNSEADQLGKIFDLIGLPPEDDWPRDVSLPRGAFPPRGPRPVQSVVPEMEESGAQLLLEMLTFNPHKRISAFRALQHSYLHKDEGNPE
Sequence of Cyclin-dependent kinase 6 (Homo sapiens) (Q00534 whole entry): as the sequence (Q00534 whole entry, looked up) above

Row | Structure (SMILES) | Activity [1] | IC50 (NCI-H2228 [2]) [µM] | IC50 (NCI-H3122 [3]) [µM] | IC50 (NCI-H1299 [4]) [µM] | IC50 (NCI-H1299 [5]) [µM] | IC50 (NCI-H3122 [6]) [µM] | IC50 (NCI-H2228 [7]) [µM] | inhibition [8] [%] | inhibition [9] [%] | inhibition [10] [%] | inhibition [11] [%] | IC50 (NCI-H3122 [12]) [µM]
1 | CC(=O)c1c(C)c2cnc(Nc3ccc(N4CCN(CC(=O)NCCSSCCN(CC(=O)NCCNc5cccc6c5C(=O)N(C5CCC(=O)NC5=O)C6=O)C(=O)CCCCC(=O)N5CCC(c6cc(OC(C)C)c(Nc7ncc(Cl)c(Nc8ccccc8S(=O)(=O)C(C)C)n7)cc6C)CC5)CC4)cn3)nc2n(C2CCCC2)c1=O (centres undefined) | inactive | 4.07 | 1.02 | 25.6 | 13.5 | 0.77 | 9.58 | – | – | – | – | –
2 | CC(=O)c1c(C)c2cnc(Nc3ccc(N4CCN(CC(=O)NCCSSCCN(CC(=O)Nc5cccc6c5C(=O)N(C5CCC(=O)NC5=O)C6=O)C(=O)CCCCCCCCC(=O)N5CCC(c6cc(OC(C)C)c(Nc7ncc(Cl)c(Nc8ccccc8S(=O)(=O)C(C)C)n7)cc6C)CC5)CC4)cn3)nc2n(C2CCCC2)c1=O (centres undefined) | inactive | > 50 | 10.9 | > 50 | 25.1 | 4.46 | > 50 | – | – | – | – | –
3 | CC(=O)c1c(C)c2cnc(Nc3ccc(N4CCN(CC(=O)NCCSSCCN(CC(=O)NCCNc5cccc6c5C(=O)N(C5CCC(=O)NC5=O)C6=O)C(=O)CCCCCCCCCCC(=O)N5CCC(c6cc(OC(C)C)c(Nc7ncc(Cl)c(Nc8ccccc8S(=O)(=O)C(C)C)n7)cc6C)CC5)CC4)cn3)nc2n(C2CCCC2)c1=O (centres undefined) | inactive | 17 | 10.6 | 36.7 | 21.5 | 3.47 | 25.8 | – | – | – | – | –
4 | CC(=O)c1c(C)c2cnc(Nc3ccc(N4CCN(CC(=O)NCCSSCCN(CC(=O)NCCNc5cccc6c5C(=O)N(C5CCC(=O)NC5=O)C6=O)C(=O)CCC(=O)N5CCC(c6cc(OC(C)C)c(Nc7ncc(Cl)c(Nc8ccccc8S(=O)(=O)C(C)C)n7)cc6C)CC5)CC4)cn3)nc2n(C2CCCC2)c1=O (centres undefined) | inactive | 11 | 31.5 | > 50 | 12.9 | 22.8 | > 50 | – | – | – | – | –
5 | CC(=O)c1c(C)c2cnc(Nc3ccc(N4CCN(CC(=O)NCCSSCCN(CC(=O)Nc5cccc6c5C(=O)N(C5CCC(=O)NC5=O)C6=O)C(=O)CCCCCCC(=O)N5CCC(c6cc(OC(C)C)c(Nc7ncc(Cl)c(Nc8ccccc8S(=O)(=O)C(C)C)n7)cc6C)CC5)CC4)cn3)nc2n(C2CCCC2)c1=O (centres undefined) | inactive | > 50 | 6.92 | 28.3 | 10.7 | 2.35 | > 50 | – | – | – | – | –
6 | CC(=O)c1c(C)c2cnc(Nc3ccc(N4CCN(CC(=O)NCCSSCCN(CC(=O)Nc5cccc6c5C(=O)N(C5CCC(=O)NC5=O)C6=O)C(=O)CCCCCCCCCCC(=O)N5CCC(c6cc(OC(C)C)c(Nc7ncc(Cl)c(Nc8ccccc8S(=O)(=O)C(C)C)n7)cc6C)CC5)CC4)cn3)nc2n(C2CCCC2)c1=O (centres undefined) | inactive | > 50 | > 50 | > 50 | > 50 | 31.2 | > 50 | – | – | – | – | –
7 | CC(=O)c1c(C)c2cnc(Nc3ccc(N4CCN(CC(=O)NCCSSCCN(CC(=O)NCCNc5cccc6c5C(=O)N(C5CCC(=O)NC5=O)C6=O)C(=O)CCCCCCCCC(=O)N5CCC(c6cc(OC(C)C)c(Nc7ncc(Cl)c(Nc8ccccc8S(=O)(=O)C(C)C)n7)cc6C)CC5)CC4)cn3)nc2n(C2CCCC2)c1=O (centres undefined) | inactive | 3.15 | 2.24 | 30.2 | 10.3 | 0.92 | 15.4 | – | – | – | – | –
8 | CC(=O)c1c(C)c2cnc(Nc3ccc(N4CCN(CC(=O)NCCS)CC4)cn3)nc2n(C2CCCC2)c1=O | – | – | – | – | – | – | – | 58.1 | 93.4 | 99.5 | 94.5 | 1.23
